≈ marks a conversion by molar mass, not a printed value. A value given as a limit tells only on which side of the number the result lay.

This passage reports MIC results from US6929927B2, “Method of evaluating antifungal agent” (Pola Chemical Industries Inc., priority 2000, dated 2005).

The assay deals with Trichophyton mentagropytes TIMM 2789. The assay can be described thus: MIC by microdilution method in 96-well plates, inactivation of agents by lecithin and Tween 80. It is filed as cell-based. Particulars: TIMM2789, 168 h, 7 days. The procedure: MIC (minimum inhibitory concentration) was measured by means of the microdilution method by using 96-well plates to investigate the inactivation of respective agents caused by lecithin and Tween 80. The following four media were used. That is, a Sabouraud liquid medium (SDB) as a base medium, a medium obtained by adding 0.7% Tween 80 to SDB, a medium obtained by adding 1% lecithin to SDB, and a medium obtained by adding 0.7% Tween 80 and 1% lecithin to SDB were used. The following agents were used. That is, lanoconazole, bifonazole, and terbinafine were used. The following test strain was used. That is, Trichophyton mentagropytes TIMM 2789 (available from Institute of Medical Mycology of Teikyo University), which is generally used for the animal infection experiment, was used. The cultivation was performed at 28° C. for 7 days, while the microbial concentration upon the inoculation was about 10^4 conidia/ml. After the cultivation, it was regarded that MIC (μg/ml) was represented by the minimum agent concentration of the plate on which no microbial growth was observed by visual observation.

[1] abbreviates: Sabouraud liquid medium (SDB), additive none, 28° C.

The term MIC denotes the lowest concentration found to suppress growth. A lower MIC goes with inhibition by little substance. As to `c1ccc(-c2ccc(C(c3ccccc3)n3ccnc3)cc2)cc1` (stereo not drawn) [Bifonazole, bifonazole], the MIC by setting is: (SDB with 0.7% Tween 80, 28° C.) above 25 µg/mL; (SDB with 1% lecithin, 28° C.) above 25 µg/mL; under setting [1], 1.56 µg/mL (≈ 5.03 µM).

For the compound `N#C/C(=C1/SCC(c2ccccc2Cl)S1)n1ccnc1` (stereo not drawn) [Lanoconazole, lanoconazole], the MIC by setting is: (SDB with 0.7% Tween 80, 28° C.) 0.312 µg/mL (≈ 0.975 µM); (SDB with 1% lecithin, 28° C.) 0.078 µg/mL (≈ 0.244 µM); under setting [1], at most 0.005 µg/mL.

In the case of `CN(C/C=C/C#CC(C)(C)C)Cc1cccc2ccccc12` [Terbinafine, terbinafine], the lowest concentration to inhibit growth (SDB with 0.7% Tween 80, 28° C.) (MIC) was 0.312 µg/mL (≈ 1.07 µM); 0.078 µg/mL (≈ 0.268 µM) was the least that counted as inhibitory (SDB with 1% lecithin, 28° C.) (MIC); the minimum inhibitory concentration (MIC) under setting [1] was at most 0.005 µg/mL.
